Test results as given in patent publication US10538567B2, “Compounds as peptidic trigonal GLP1/glucagon/GIP receptor agonists” (priority 2016, dated 2020).

Target: T1, human GLP-1 receptor (Homo sapiens, UniProt P43220)
T1 construct: expressed in transfected cells; host or cells: HEK-293
Assay: cAMP response (HTRF) of HEK-293 cells stably expressing human GLP-1 receptor
Format: cell-based
Settings: Table 8; read-out: EC50 hGLP-1R
Protocol: cAMP content of cells was determined using a kit from Cisbio Corp. (cat. no. 62AM4PEJ) based on HTRF (Homogenous Time Resolved Fluorescence). For preparation, cells were split into T175 culture flasks and grown overnight to near confluency in medium (DMEM/10% FBS). Medium was then removed and cells washed with PBS lacking calcium and magnesium, followed by proteinase treatment with accutase (Sigma-Aldrich cat. no. A6964). Detached cells were washed and resuspended in assay buffer (1×HBSS; 20 mM HEPES, 0.1% BSA, 2 mM IBMX) and cellular density determined. They were then diluted to 400000 cells/ml and 25 μl-aliquots dispensed into the wells of 96-well plates. For measurement, 25 μl of test compound in assay buffer was added to the wells, followed by incubation for 30 minutes at room temperature.
Potencies of peptidic compounds at the GLP-1, glucagon and GIP receptors were determined by exposing cells expressing human glucagon receptor (hGlucagon R), human GIP receptor (hGIP-R) or human GLP-1 receptor (hGLP-1 R) to the listed compounds at increasing concentrations and measuring the formed cAMP as described in Methods.

T1 sequence (P43220 24-463): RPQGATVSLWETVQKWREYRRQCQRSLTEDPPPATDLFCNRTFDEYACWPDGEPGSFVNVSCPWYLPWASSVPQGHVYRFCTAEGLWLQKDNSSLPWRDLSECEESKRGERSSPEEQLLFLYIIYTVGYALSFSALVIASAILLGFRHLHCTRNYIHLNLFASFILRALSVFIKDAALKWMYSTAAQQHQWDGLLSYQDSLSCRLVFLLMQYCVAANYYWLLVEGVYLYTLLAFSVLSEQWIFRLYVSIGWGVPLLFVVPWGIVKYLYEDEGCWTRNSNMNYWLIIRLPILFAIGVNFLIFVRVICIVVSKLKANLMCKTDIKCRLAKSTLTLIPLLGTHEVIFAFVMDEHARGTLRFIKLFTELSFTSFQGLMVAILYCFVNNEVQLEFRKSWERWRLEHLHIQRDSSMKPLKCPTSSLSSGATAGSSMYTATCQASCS

Structure (SMILES): CCCCCCCCCCCCCCCC(=O)N[C@@H](CCC(=O)N[C@@H](CCC(=O)NCCCC[C@H](NC(=O)[C@H](CC(C)C)NC(=O)[C@H](CCCCN)NC(=O)[C@H](CO)NC(=O)[C@H](CC(C)C)NC(=O)[C@H](CC(=O)O)NC(=O)[C@H](CO)NC(=O)[C@@H](NC(=O)[C@H](Cc1ccccc1)NC(=O)[C@@H](NC(=O)CNC(=O)[C@H](Cc1c[nH]cn1)NC(=O)C(C)(C)NC(=O)[C@@H](N)Cc1c[nH]cn1)[C@@H](C)O)[C@@H](C)O)C(=O)N[C@@H](CCC(=O)O)C(=O)N[C@@H](CCC(=O)O)C(=O)N[C@@H](CCC(N)=O)C(=O)N[C@@H](CCCNC(=N)N)C(=O)N[C@@H](CCC(N)=O)C(=O)N[C@@H](CCCCN)C(=O)N[C@@H](CCC(=O)O)C(=O)N[C@@H](Cc1ccccc1)C(=O)N[C@H](C(=O)N[C@@H](CCC(=O)O)C(=O)N[C@@H](Cc1c[nH]c2ccccc12)C(=O)N[C@@H](CC(C)C)C(=O)N[C@@H](CCCCN)C(=O)N[C@@H](C)C(=O)NCC(=O)NCC(=O)N[C@@H](Cc1c[nH]cn1)C(=O)N1CCC[C@H]1C(=O)N[C@@H](CO)C(=O)NC(C)(C)C(=O)N[C@@H](CCCCN)C(=O)N1CCC[C@H]1C(=O)N1CCC[C@H]1C(=O)N1CCC[C@H]1C(=O)N[C@@H](CCCCN)C(N)=O)[C@@H](C)CC)C(=O)O)C(=O)O [SEQ ID NO: 6, H-Aib-H-G-T-F-T-S-D-L-S-K-L-K[gGlu-gGlu-Palm]-E-E-Q-R-Q-K-E-F-I-E-W-L-K-A-G-G-H-P-S-Aib-K-P-P-P-K-NH2]
- EC50: 1.4 pM
